Legend:
P2X7-2Nβ 73–79 deletion = biological target: T1, P2X7-2Nβ 73–79 deletion (Homo sapiens, UniProt Q99572, DEL73-79/I21V/M24R/N16P/N25R/Q22R/R20V/S23N/T19I/Y26L); experiment: Two-electrode voltage clamp of ATP-evoked currents in Xenopus oocytes; format: cell-based
T1 construct: expressed in transfected cells; host or cells: Xenopus laevis oocytes (cRNA injection)
T1 sequence (Q99572 with tags, fused parts or gaps N16P/T19I/R20V/I21V/Q22R/S23N/M24R/N25R/Y26L/DEL73-79): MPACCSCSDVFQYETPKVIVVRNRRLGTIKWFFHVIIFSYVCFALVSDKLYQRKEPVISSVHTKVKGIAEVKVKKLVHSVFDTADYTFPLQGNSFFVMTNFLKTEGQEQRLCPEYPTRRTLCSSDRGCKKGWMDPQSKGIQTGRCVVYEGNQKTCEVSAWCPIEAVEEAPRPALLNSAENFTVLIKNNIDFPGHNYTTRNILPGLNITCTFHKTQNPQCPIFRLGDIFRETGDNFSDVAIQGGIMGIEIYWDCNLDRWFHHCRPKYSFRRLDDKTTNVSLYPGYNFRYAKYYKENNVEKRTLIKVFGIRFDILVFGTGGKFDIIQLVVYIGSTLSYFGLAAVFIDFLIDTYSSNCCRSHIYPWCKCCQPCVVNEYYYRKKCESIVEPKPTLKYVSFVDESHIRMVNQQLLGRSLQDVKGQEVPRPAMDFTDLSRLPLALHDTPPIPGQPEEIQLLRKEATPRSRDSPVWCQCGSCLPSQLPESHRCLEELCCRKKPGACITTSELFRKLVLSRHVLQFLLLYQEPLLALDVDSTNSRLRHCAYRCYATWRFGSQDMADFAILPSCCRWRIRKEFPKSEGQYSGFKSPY
Procedure: (§1) Additional point mutants were made using the QuikChange mutagenesis kit (Stratagene California, La Jolla, CA). The production of the correct mutations and absence of coding errors was determined by DNA sequencing (Automated ABI Sequencing Service, University of Leicester, UK). cRNA was generated for the mutants and 50 nl (50 ng) was injected into manually defoliculated stage V Xenopus laevis oocytes using an Inject+Matic microinjector (J.A. Gabay, Inject+Matic, Geneva, Switzerland). Injected oocytes were stored at 16°C in ND96 buffer [in millimolar concentrations, NaCl 96, KCl 2, CaCl2 1.8, MgCl2 1, sodium pyruvate 5, and HEPES 5 (pH 7.6) supplemented with 50 μg/ml gentamycin and 50 μg/ml tetracycline]. Three to seven days postinjection two-electrode voltage clamp recordings were made from oocytes bathed in divalent-free ND96 buffer (in millimolar concentrations, NaCl 96, KCl 2, sodium pyruvate 5, HEPES 5, and 0.1 flufenamic acid, pH 7.6). Oocytes were voltage clamped at a holding potential of −60 mV with a GeneClamp500B amplifier (Molecular Devices).
(§2) Inhibition by the antagonists was expressed as the percentage of the peak current amplitude of an EC90 concentration of ATP recorded before the application of antagonist (ATP gave reproducible responses to ATP in the absence of antagonist). Inhibition curves were fitted with the Hill equation (variable slope) using GraphPad Prism 6 (GraphPad Software, San Diego, CA). […] Individual concentration-response curves were generated for individual experiments, and statistical analysis was carried out on the data generated. […] Data are shown as mean ± S.E.M. In all cases n ≥ 3 for all data points.

P2X7R point mutant E305A = biological target: T2, P2X7R point mutant E305A (Homo sapiens, UniProt Q99572, E305A/I21V/M24R/N16P/N25R/Q22R/R20V/S23N/T19I/Y26L); experiment: as above; format: cell-based; settings: EC90 ATP, mean ± S.E.M.
T2 construct: expressed in transfected cells; host or cells: Xenopus laevis oocytes (cRNA injection)

hP2X1R = biological target: T3, hP2X1R (Homo sapiens, UniProt P51575); experiment: as above; format: cell-based
T3 construct: expressed in transfected cells; host or cells: Xenopus laevis oocytes (cRNA injection)

[1] = biological target: T4, chimeric P2X7/1 receptor 89–94 (Homo sapiens, UniProt Q99572, I21V/M24R/N16P/N25R/Q22R/R20V/S23N/T19I/T90V/T94V/Y26L); design: method as in Allsopp et al., 2017; settings: chimera 89–94; ref Allsopp et al., 2017; cited from earlier work
T4 construct: expressed in transfected cells; host or cells: Xenopus laevis oocytes (cRNA injection)
T4 sequence (Q99572 1-595 N16P/T19I/R20V/I21V/Q22R/S23N/M24R/N25R/Y26L/T90V/T94V): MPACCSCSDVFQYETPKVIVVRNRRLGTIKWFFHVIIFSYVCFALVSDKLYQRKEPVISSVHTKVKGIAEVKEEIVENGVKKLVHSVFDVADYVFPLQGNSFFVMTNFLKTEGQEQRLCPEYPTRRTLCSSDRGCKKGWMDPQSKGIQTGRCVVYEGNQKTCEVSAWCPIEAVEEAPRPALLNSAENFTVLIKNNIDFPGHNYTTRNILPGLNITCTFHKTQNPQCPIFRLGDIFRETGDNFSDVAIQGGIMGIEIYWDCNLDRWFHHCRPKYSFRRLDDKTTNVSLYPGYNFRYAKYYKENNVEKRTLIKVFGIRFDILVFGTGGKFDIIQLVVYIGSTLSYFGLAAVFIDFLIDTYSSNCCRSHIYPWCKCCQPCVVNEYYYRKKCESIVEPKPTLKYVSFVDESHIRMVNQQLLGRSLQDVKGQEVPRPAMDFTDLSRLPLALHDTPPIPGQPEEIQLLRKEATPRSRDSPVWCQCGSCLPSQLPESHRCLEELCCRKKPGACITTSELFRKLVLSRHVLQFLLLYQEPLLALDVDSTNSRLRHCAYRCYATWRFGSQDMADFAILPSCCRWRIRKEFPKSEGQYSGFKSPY

[2] = biological target: T5, chimeric P2X7/1 receptor 279–285 (left flipper) (Homo sapiens, UniProt Q99572, DEL279-281/I21V/M24R/N16P/N25R/N284E/Q22R/R20V/S23N/T19I/T282Y/T283E/V285K/Y26L); design: method as in Allsopp et al., 2017; settings: chimera 279–285; ref Allsopp et al., 2017; cited from earlier work
T5 construct: expressed in transfected cells; host or cells: Xenopus laevis oocytes (cRNA injection)
T5 sequence (Q99572 with tags, fused parts or gaps N16P/T19I/R20V/I21V/Q22R/S23N/M24R/N25R/Y26L/DEL279-281/T282Y/T283E/N284E/V285K): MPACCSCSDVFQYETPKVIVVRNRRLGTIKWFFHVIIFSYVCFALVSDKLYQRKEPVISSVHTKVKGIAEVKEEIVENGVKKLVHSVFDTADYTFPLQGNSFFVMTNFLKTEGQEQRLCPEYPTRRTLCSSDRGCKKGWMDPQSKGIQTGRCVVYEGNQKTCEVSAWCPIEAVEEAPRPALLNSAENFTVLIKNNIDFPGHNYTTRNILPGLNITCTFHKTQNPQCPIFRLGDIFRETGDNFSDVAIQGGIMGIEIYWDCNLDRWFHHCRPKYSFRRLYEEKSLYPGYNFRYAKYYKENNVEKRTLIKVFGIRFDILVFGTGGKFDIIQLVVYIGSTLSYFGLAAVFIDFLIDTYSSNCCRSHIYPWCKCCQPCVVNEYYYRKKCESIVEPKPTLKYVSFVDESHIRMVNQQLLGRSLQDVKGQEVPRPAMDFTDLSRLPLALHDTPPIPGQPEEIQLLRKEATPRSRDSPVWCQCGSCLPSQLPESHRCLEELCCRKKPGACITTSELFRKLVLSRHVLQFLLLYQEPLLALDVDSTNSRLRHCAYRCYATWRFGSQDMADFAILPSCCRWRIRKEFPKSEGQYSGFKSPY

[3] = system: chimeric P2X7/1 receptor 112–118; experiment: cell-based; format: cell-based, human; settings: chimera 112–118
Procedure: as §1, §2

[4] = system: P2X7R left flipper point mutant D280A; experiment: Two-electrode voltage clamp of ATP-evoked currents in Xenopus oocytes; format: cell-based, human
Procedure: The production of the correct mutations and absence of coding errors was determined by DNA sequencing (Automated ABI Sequencing Service, University of Leicester, UK). cRNA was generated for the mutants and 50 nl (50 ng) was injected into manually defoliculated stage V Xenopus laevis oocytes using an Inject+Matic microinjector (J.A. Gabay, Inject+Matic, Geneva, Switzerland). Injected oocytes were stored at 16°C in ND96 buffer [in millimolar concentrations, NaCl 96, KCl 2, CaCl2 1.8, MgCl2 1, sodium pyruvate 5, and HEPES 5 (pH 7.6) supplemented with 50 μg/ml gentamycin and 50 μg/ml tetracycline]. Three to seven days postinjection two-electrode voltage clamp recordings were made from oocytes bathed in divalent-free ND96 buffer (in millimolar concentrations, NaCl 96, KCl 2, sodium pyruvate 5, HEPES 5, and 0.1 flufenamic acid, pH 7.6). Oocytes were voltage clamped at a holding potential of −60 mV with a GeneClamp500B amplifier (Molecular Devices).
Inhibition by the antagonists was expressed as the percentage of the peak current amplitude of an EC90 concentration of ATP recorded before the application of antagonist (ATP gave reproducible responses to ATP in the absence of antagonist). Inhibition curves were fitted with the Hill equation (variable slope) using GraphPad Prism 6 (GraphPad Software, San Diego, CA). […]

[5] = system: P2X7R left flipper point mutant K281A; experiment: as above; format: cell-based, human
Procedure: Injected oocytes were stored at 16°C in ND96 buffer [in millimolar concentrations, NaCl 96, KCl 2, CaCl2 1.8, MgCl2 1, sodium pyruvate 5, and HEPES 5 (pH 7.6) supplemented with 50 μg/ml gentamycin and 50 μg/ml tetracycline]. Three to seven days postinjection two-electrode voltage clamp recordings were made from oocytes bathed in divalent-free ND96 buffer (in millimolar concentrations, NaCl 96, KCl 2, sodium pyruvate 5, HEPES 5, and 0.1 flufenamic acid, pH 7.6). Oocytes were voltage clamped at a holding potential of −60 mV with a GeneClamp500B amplifier (Molecular Devices).
Electrophysiological traces were digitized with a Digidata 1322A and collected using pCLAMP 8.2 software (Molecular Devices, Menlo Park, CA). An EC90 concentration of ATP was used to test antagonist sensitivity for the P2X7-2Nβ and mutant receptors [ATP sensitivity of the chimeras and mutants are reported in [Allsopp et al. (2017)]] to standardize for any changes in ATP sensitivity.
Inhibition by the antagonists was expressed as the percentage of the peak current amplitude of an EC90 concentration of ATP recorded before the application of antagonist (ATP gave reproducible responses to ATP in the absence of antagonist). […] Any significant differences from the P2X7-2Nβ control were calculated by one-way analysis of variance, followed by Dunnett’s test (using GraphPad Prism 6). […]

T2 sequence (Q99572 whole entry N16P/T19I/R20V/I21V/Q22R/S23N/M24R/N25R/Y26L/E305A): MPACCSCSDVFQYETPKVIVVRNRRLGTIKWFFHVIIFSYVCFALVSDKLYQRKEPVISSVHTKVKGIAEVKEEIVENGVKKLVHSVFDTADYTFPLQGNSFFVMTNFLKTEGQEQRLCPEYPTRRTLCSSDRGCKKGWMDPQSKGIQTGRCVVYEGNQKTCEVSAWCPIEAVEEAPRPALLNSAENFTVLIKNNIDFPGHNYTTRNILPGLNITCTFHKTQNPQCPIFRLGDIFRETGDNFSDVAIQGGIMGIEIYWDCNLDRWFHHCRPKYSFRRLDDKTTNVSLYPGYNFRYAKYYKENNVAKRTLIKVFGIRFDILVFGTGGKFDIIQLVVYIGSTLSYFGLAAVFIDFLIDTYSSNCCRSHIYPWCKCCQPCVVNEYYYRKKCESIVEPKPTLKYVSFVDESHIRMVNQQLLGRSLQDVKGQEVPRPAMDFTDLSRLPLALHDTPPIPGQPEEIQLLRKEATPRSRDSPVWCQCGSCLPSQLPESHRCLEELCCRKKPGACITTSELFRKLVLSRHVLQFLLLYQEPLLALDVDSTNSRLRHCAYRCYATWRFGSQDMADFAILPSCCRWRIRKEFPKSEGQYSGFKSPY
T3 sequence (P51575 whole entry): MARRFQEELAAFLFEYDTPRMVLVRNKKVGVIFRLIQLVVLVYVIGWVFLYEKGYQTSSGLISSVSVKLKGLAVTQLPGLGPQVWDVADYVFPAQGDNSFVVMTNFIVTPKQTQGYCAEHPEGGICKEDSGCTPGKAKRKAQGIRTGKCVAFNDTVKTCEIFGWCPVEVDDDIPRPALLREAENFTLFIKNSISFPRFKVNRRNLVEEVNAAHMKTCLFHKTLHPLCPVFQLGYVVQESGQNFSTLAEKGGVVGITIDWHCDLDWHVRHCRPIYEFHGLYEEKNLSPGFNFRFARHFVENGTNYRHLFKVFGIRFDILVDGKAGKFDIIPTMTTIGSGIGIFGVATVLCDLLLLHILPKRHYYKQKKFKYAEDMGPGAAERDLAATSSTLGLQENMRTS

Compound	IC50 (P2X7-2Nβ 73–79 deletion)	IC50 (P2X7R point mutant E305A)	inhibition of ATP (EC90)-evoked currents (hP2X1R)	fold decrease in antagonist affinity [1]	effect on antagonist sensitivity [2]	effect on antagonist sensitivity relative to P2X7-2Nβ (P2X7-2Nβ 73–79 deletion; 73–79 deletion)	fold decrease in antagonist sensitivity relative to P2X7-2Nβ [3]	effect on antagonist sensitivity relative to P2X7-2Nβ [4]	fold decrease in antagonist sensitivity relative to P2X7-2Nβ [5]
Cl.Clc1cccc(-c2nnnn2Cc2cccnc2)c1Cl.O [A438079, 3-(5-(2,3-dichlorophenyl)-1H-tetrazol-1-yl)methyl pyridine hydrochloride hydrate]	200 nM	200 nM	ineffective	–	–	–	–	–	–
Cl.Cl.O=C(CC12CC3CC(CC(C3)C1)C2)Nc1cccc2nc(NCCNCCO)ccc12 [AZ10606120, N-[2-[[2-[(2-hydroxyethyl)amino]ethyl]amino]-5-quinolinyl]-2-tricyclo[3.3.1.13,7]dec-1-ylacetamide dihydrochloride]	–	–	–	> 300 fold	no effect	–	–	–	–
COc1ccc(CC(=O)NC(N=C(NC#N)Nc2cccc3ncccc23)C(C)(C)C)cc1OC (centres unmarked) [A740003, N-[1-[[(cyanoamino)(5-quinolinylamino)methylene]amino]-2,2-dimethylpropyl]-3,4-dimethoxybenzeneacetamide]	79.4 nM	25.1 nM	–	–	–	unaffected	~3 fold	no effect	~4 fold
